This experiment relates to APP/PSI transgenic mice. The experiment is described as follows: cognitive ability of APP/PSI transgenic mice (FIG. 1). In kind it is in vivo. The following applies: intragastric administration, 20-week-old mice, 1.5 and 6 mg/kg of weight. The procedure:
Intragastric administration is applied to 20-week-old mice. Wiletype is a wiletype control group; Ctrl is a transgenic control group; DNP is a […] group (1.5 mg/kg of weight); PQQLi 1.5 is a lithium pyrroloquinoline-quinone salt group (1.5 mg/kg of weight); PQQLi 6 is a lithium pyrroloquinoline-quinone group (6 mg/kg of weight). *p<0.05; ** p<0.005; NS: […].

With `O=C(O)c1cc(C(=O)O)c2c(n1)C(=O)C(=O)c1cc(C(=O)[O-])[nH]c1-2.[Li+]` [PQQLi, 4,5-dihydroxy-1H-pyrrole[2,3-f]chinoline-2,7,9-tricarboxylic acid, lithium salt], the cognitive ability entry is listed as “promotes the cognitive ability”.

The values are drawn from patent US20110313164A1, “LITHIUM DERIVATIVES OF PYRROLOQUINOLINE QUINONE AND PREPARATION METHOD THEREOF” (priority 2009, published 2011).
